Consider 1 compound from patent US20240335425A1, “PHARMACEUTICAL COMPOSITIONS OF ALPHA-2-ADRENERGIC RECEPTOR AGONISTS AND THEIR USE FOR IMPROVING VISION” (Allergan, Inc., priority 2020, published 2024).

The procedure of series [1]:
Aliquots of the PBS only curve were quenched at time zero to be used as stability controls and calibration standards. Following centrifugation, samples were analyzed by LC-MS/MS bioanalysis. Back-calculated concentrations using the assay PBS curve were used for binding and stability calculations.

The test system of series [2] is participants diagnosed with presbyopia. The experiment in a line: Clinical Study 2 in presbyopes, once daily for 14 days. The series is classed as in vivo, human. The text has this:
In this study, approximately 108 participants diagnosed with presbyopia (male and female; 40 to 65 years of age) are selected to participate.
Cohorts 4, 5, and 6 (Part A) are multiple ascending dose cohorts in which participants are randomized to receive either the compound of Formula I at doses ranging from 0.01% to 0.1% or vehicle once daily in both eyes for 14 days. Each cohort in Part A consists of 9 participants who receive active intervention (the compound of Formula I) and 3 participants that receive vehicle in order to evaluate safety, tolerability, pharmacokinetics, and clinical efficacy of the compound of Formula I. As with Example 8, after each cohort is completed, the independent data monitoring committee reviews the safety, pharmacokinetic, and target engagement data to determine if it is acceptable to proceed to the next planned dosing cohort. The dose of the compound of Formula I in Part B (Cohorts 7 and 8) is selected by the data monitoring committee after Cohort 6 has completed.
Cohort 7 is a single-masked, active comparator cohort that includes approximately 60 masked participants with presbyopia randomized 1:1 to receive either pilocarpine 1.25% (w/v) ophthalmic solution or an ophthalmic solution of the compound of Formula I administered at the dose strength recommended by the data monitoring committee for 14 days. Safety, tolerability, and efficacy is assessed after topical ocular administration of the compound of Formula I compared with pilocarpine 1.25%. Common adverse events associated with pilocarpine (particularly when administered to the eye) include, for example, headache, brow ache, accommodative change, eye irritation, eye pain, blurred vision, visual impairment, ocular blurring, ocular discomfort, blurry vision, light sensitivity, stinging, and itching.
Cohort 8 is a cohort to evaluate safety, tolerability, pharmacokinetics, and efficacy of the compound of Formula I administered at the dose strength recommended by the data monitoring committee compared with vehicle for 14 days in participants with presbyopia who wear contact lenses (9 participants receive the compound of Formula I and 3 participants receive vehicle).
In all cohorts of this study (Cohorts 4 to 8), participants receive their first dose in clinic on Day 1, and stay in clinic for safety, pharmacokinetic, and efficacy evaluations for 10 hours post-dose. The participants then return for dosing and safety evaluations once daily from Day 2 to Day 7. They then receive multidose bottles for single unit of use for at-home dosing from Days 8 to 13 and return to the clinic on Day 14 for dosing as well as safety, tolerability, pharmacokinetic (Cohorts 4 to 6, and 8 only), and efficacy evaluations for 10 hours post-dose. On Day 30, participants return for a safety follow-up and close out visit.
In Parts A and B of this study, safety and tolerability are evaluated as in Example 12 (i.e. by monitoring participants in the three cohorts for exhibition/reporting of adverse events and monitoring the characteristics/assessments as are monitored in Example 12), with the additional characteristics/assessments of contrast sensitivity, photopic (e.g. ≥80 cd/m^2; 251 lux at target) and mesopic (e.g. 3.2 to 3.5 cd/m^2; 10 to 11 lux at target) high contrast corrected distance visual acuity (each eye and binocularly), manifest refraction (mesopic and photopic) also being measured in Part A. Systemic and local pharmacokinetics of the compound of Formula I are evaluated by measuring plasma and tear concentrations of the compound of Formula I in the participants and also determining pharmacokinetic parameters as is done in Example 12. Target engagement is measured by measuring the pupil size of the participants during the study as is done in Example 12. […]

For another series, the system named is Dutch Belted rabbits. Description: In vivo rabbit miosis model (pupil diameter after single topical dose). Particulars: for animals with greater than 2.5 mm reduction in pupil size from baseline: 0.1% w:v, scotopic (<10 lux), n=6. How it is done:
Female Dutch Belted rabbits (Covance, Princeton, New Jersey) weighing between 2-4 kg were used for these studies. […] For topical dosing, eye drops (volume=35 μl) were instilled into the lower conjunctival sac of the test eye.
Pupil diameter was measured in both the treated and untreated eye with an Optistick to the nearest 0.5 mm. […]

Setting [3] is: Part A, bilaterally for 14 days.
[4] abbreviates: Part B, Cohort 8, contact lens wearers, 14 days.

`Cc1c(N=C2NCCN2)ccc2[nH]cnc12` [Compound 1]: in series [1], the “melanin binding (in words)” value was “no significant melanin binding”. Moreover, in series [2] (setting [3]), the “depth of focus compared with vehicle” value was “improved depth of focus”, the “distance corrected near visual acuity compared with vehicle” value is “numeric improvement (e.g. two or three lines)”, the “patient reported outcome questionnaires/questions compared with vehicle” value is on record as “more positive answers” and the “pupil diameter compared with vehicle” value is reported as “decrease in pupil diameter”. Also, the systemic exposures result in series [2] (setting [3]) is recorded as “sufficient safety margins”. Also, the safety and tolerability entry in series [2] (Part A, bilaterally for 14 days, 0.01% to 0.1%) was “acceptable (or improved) safety and tolerability profiles”. The “safety and tolerability compared with 1.25% (w/v) pilocarpine” value in series [2] (Part B, Cohort 7) was “acceptable (or improved”. In series [2] (setting [4]), the “depth of focus compared with vehicle” value is given as “improved depth of focus”, the “distance corrected near (and/or intermediate) visual acuity compared with vehicle” value is “numeric improvement (e.g. two or three lines)” and the “patient reported outcome questionnaires/questions compared with vehicle” value is “more positive answers”. Moreover, the safety and tolerability result in series [2] (Part B, both cohorts, bilaterally for 14 days) was “acceptable safety and tolerability profiles”. In addition, the “animals with greater than 2.5 mm reduction in pupil size from baseline” value in the series on Dutch Belted rabbits (after 6 hours) is recorded as “more than half”. For the same compound, in the series on Dutch Belted rabbits (two hours after dosing), the “animals with greater than 2.5 mm reduction in pupil size from baseline” value was “virtually all animals”. The “miotic action (peak pupil constriction and duration)” value in the series on Dutch Belted rabbits (room lighting conditions, versus brimonidine) is listed as “greater miotic action than brimonidine”. Besides, the “effect on pupil constriction compared to Compound 3” value with Dutch Belted rabbits (topical dose) is listed as “greater effect on pupil constriction”. Moreover, the “pupil constriction at 9 hours after dosing” value with Dutch Belted rabbits (topical dose, 9 hours) was “significant pupil constriction”. In addition, the “miotic efficacy compared with other alpha adrenergic receptor agonists” value with Dutch Belted rabbits (topical dose, low-light conditions (2-10 Lux)) is reported as “best miotic effect”.
